Measurements as given in ChEMBL document CHEMBL5390237, “Discovery of Selective Histone Deacetylase 1 and 2 Inhibitors: Screening of a Focused Library Constructed by Click Chemistry, Kinetic Binding Analysis, and Biological Evaluation” (J Med Chem, 2023).

The compounds below were run against Histone deacetylase 2 (Homo sapiens, UniProt Q92769) (assay: Inhibition of full-length recombinant human C-terminal GST tagged HDAC2 expressed in Sf9 insect cells using aminoluciferin peptide substrate at 100 nM preincubated for 3 hrs followed by substrate addition and measured after 30 mins by HDAC-Glo I/II chemiluminescence assay). Settings: time 3.5 hrs.
Histone deacetylase 2, sequence (Q92769 whole entry): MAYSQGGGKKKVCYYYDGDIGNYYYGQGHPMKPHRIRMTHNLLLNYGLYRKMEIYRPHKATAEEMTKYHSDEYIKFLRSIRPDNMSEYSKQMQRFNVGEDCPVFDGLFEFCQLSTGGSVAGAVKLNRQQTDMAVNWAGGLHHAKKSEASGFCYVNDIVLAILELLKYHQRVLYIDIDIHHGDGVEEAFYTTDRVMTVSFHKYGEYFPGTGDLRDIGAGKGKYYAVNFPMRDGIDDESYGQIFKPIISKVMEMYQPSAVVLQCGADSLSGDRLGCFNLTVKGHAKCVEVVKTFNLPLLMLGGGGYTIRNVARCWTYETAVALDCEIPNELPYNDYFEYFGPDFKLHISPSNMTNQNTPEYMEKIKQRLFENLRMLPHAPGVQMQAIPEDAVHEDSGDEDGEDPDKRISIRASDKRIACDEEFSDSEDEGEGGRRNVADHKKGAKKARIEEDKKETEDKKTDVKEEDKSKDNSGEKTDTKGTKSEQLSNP

Structure (SMILES)	inhibition [%]
Nc1ccc(-c2ccc(F)cc2)cc1NC(=O)CCc1cn(-c2cccc3ccccc23)nn1	0
Nc1ccc(-c2ccsc2)cc1NC(=O)c1cn(CCc2cccc(F)c2)nn1	0
Nc1ccc(-c2ccsc2)cc1NC(=O)c1cn(CC23CC4CC(CC(C4)C2)C3)nn1	0
Nc1ccc(-c2cccnc2)cc1NC(=O)CCc1cn(CC(=O)c2ccccc2)nn1	3
Nc1ccc(-c2ccc(F)cc2)cc1NC(=O)CCc1cn(CCC2CCCCC2)nn1	2
Nc1ccc(-c2cccnc2)cc1NC(=O)CCc1cn(CCc2ccc(F)cc2)nn1	3
Nc1ccc(-c2cccs2)cc1NC(=O)CCc1cn(CCCCCCC(=O)O)nn1	9
Nc1ccc(-c2ccccc2)cc1NC(=O)CCc1cn(Cc2cccc3ccccc23)nn1	9
Cc1cccc(CCn2cc(C(=O)Nc3cc(-c4ccsc4)ccc3N)nn2)c1	7
Nc1ccc(-c2ccc(F)cc2)cc1NC(=O)CCc1cn(-c2ccc(I)cc2)nn1	0
Nc1ccc(-c2cccs2)cc1NC(=O)CCc1cn(CC23CC4CC(CC(C4)C2)C3)nn1	9
Nc1ccc(-c2ccsc2)cc1NC(=O)CCc1cn(CCC2CCCCC2)nn1	0
Nc1ccc(-c2ccccc2)cc1NC(=O)CCc1cn(CCc2cccc(F)c2)nn1	1
Nc1ccc(-c2ccccc2)cc1NC(=O)CCc1cn(CCc2ccc(C(F)(F)F)cc2)nn1	0
Nc1ccc(-c2ccccc2)cc1NC(=O)CCc1cn(C[S+]([O-])c2ccccc2)nn1 (stereo not given)	8
Nc1ccc(-c2ccc(F)cc2)cc1NC(=O)c1cn(CCCCC(=O)O)nn1	22
Nc1ccc(-c2ccccc2)cc1NC(=O)c1cn(CCCCCCCC(=O)O)nn1	0
Nc1ccc(-c2ccsc2)cc1NC(=O)CCc1cn(-c2ccc(Br)cc2)nn1	3
Nc1ccc(-c2ccsc2)cc1NC(=O)CCc1cn(CCc2ccccc2)nn1	43
Nc1ccc(-c2ccccc2)cc1NC(=O)CCc1cn(CCc2ccccn2)nn1	0
Nc1ccc(-c2ccc(F)cc2)cc1NC(=O)c1cn(CCC23CC4CC(CC(C4)C2)C3)nn1	2
Nc1ccc(-c2ccc(F)cc2)cc1NC(=O)CCc1cn(CCc2ccccc2[N+](=O)[O-])nn1	20
Nc1ccc(-c2ccsc2)cc1NC(=O)CCc1cn(CCc2cccc(F)c2)nn1	21
Nc1ccc(-c2ccccc2)cc1NC(=O)c1cn(CCCCCCC(=O)O)nn1	0
Nc1ccc(-n2cc(C(=O)Nc3cc(-c4ccc(F)cc4)ccc3N)nn2)cc1	42
Nc1ccc(-c2cccnc2)cc1NC(=O)CCc1cn(Cc2cccc3ccccc23)nn1	12

Structure (SMILES)	inhibition [%]
Nc1ccc(-c2ccccc2)cc1NC(=O)CCc1cn(CCc2ccccc2)nn1	24
Nc1ccc(-c2cccnc2)cc1NC(=O)CCc1cn(CC2CCCCC2)nn1	0
Nc1ccc(-c2ccccc2)cc1NC(=O)c1cn(CCN2CCc3ccccc3C2)nn1	0
COc1ccc(Cn2cc(CCC(=O)Nc3cc(-c4cccnc4)ccc3N)nn2)cc1	10
Nc1ccc(-c2ccsc2)cc1NC(=O)CCc1cn(CCCCCC(=O)O)nn1	0
Nc1ccc(-c2ccc(F)cc2)cc1NC(=O)c1cn(CC2CCCCC2)nn1	3
Nc1ccc(-c2ccc(F)cc2)cc1NC(=O)c1cn(CCC2CCCC2)nn1	0
Nc1ccc(-c2ccsc2)cc1NC(=O)c1cn(CCCCCc2ccccc2)nn1	0
Nc1ccc(-c2ccc(F)cc2)cc1NC(=O)CCc1cn(CCc2ccccc2)nn1	37
Nc1ccc(-c2ccc(F)cc2)cc1NC(=O)CCc1cn(CCc2cccc(C(F)(F)F)c2)nn1	11
Nc1ccc(-c2ccc(F)cc2)cc1NC(=O)CCc1cn(CCc2ccccn2)nn1	18
Nc1ccc(-c2cccnc2)cc1NC(=O)CCc1cn(CCC23CC4CC(CC(C4)C2)C3)nn1	5
Nc1ccc(-c2ccc(F)cc2)cc1NC(=O)CCc1cn(CCc2ccsc2)nn1	16
Nc1ccc(-c2ccsc2)cc1NC(=O)c1cn(CCc2ccccc2[N+](=O)[O-])nn1	2
Nc1ccc(-c2ccsc2)cc1NC(=O)CCc1cn(CCc2ccccc2[N+](=O)[O-])nn1	23
Nc1ccc(-c2ccsc2)cc1NC(=O)CCc1cn(CCc2cccc3ccccc23)nn1	0
Cc1csc(CCn2cc(C(=O)Nc3cc(-c4ccsc4)ccc3N)nn2)n1	12
Nc1ccc(-c2ccccc2)cc1NC(=O)CCc1cn(Cc2nc3ccccc3[nH]2)nn1	27
Nc1ccc(-c2ccccc2)cc1NC(=O)c1cn(CCc2ccccn2)nn1	0
Nc1ccc(-c2ccccc2)cc1NC(=O)c1cn(CCC2CCCCC2)nn1	0
Nc1ccc(-c2cccs2)cc1NC(=O)CCc1cn(CCc2ccsc2)nn1	13
Nc1ccc(-c2ccccc2)cc1NC(=O)CCc1cn(CC23CC4CC(CC(C4)C2)C3)nn1	0
Nc1ccc(-c2ccc(F)cc2)cc1NC(=O)CCc1cn(CS(=O)(=O)c2ccccc2)nn1	13
Nc1ccc(-c2ccsc2)cc1NC(=O)c1cn(CCN2CCc3ccccc3C2)nn1	18
Nc1ccc(-c2ccc(F)cc2)cc1NC(=O)CCc1cn(CCCCCC(=O)O)nn1	0

Further lines, results first:

inhibition [%]	Structure (SMILES)
30	Nc1ccc(-c2cccs2)cc1NC(=O)CCc1cn(CC(=O)Nc2ccc(F)cc2)nn1
0	Nc1ccc(-c2cccs2)cc1NC(=O)c1cn(CCc2cccc(C(F)(F)F)c2)nn1
8	Nc1ccc(-c2ccc(F)cc2)cc1NC(=O)c1cn(Cc2ccc3ccccc3c2)nn1
0	Nc1ccc(-c2cccs2)cc1NC(=O)c1ccc(-c2cn(CCc3ccc(C(F)(F)F)cc3)nn2)s1
0	Nc1ccc(-c2ccccc2)cc1NC(=O)CCc1cn(Cc2cccc(C(=O)O)c2)nn1
25	COc1ccc(Cn2cc(C(=O)Nc3cc(-c4ccsc4)ccc3N)nn2)cc1
42	Nc1ccc(-c2cccs2)cc1NC(=O)c1ccc(-c2cn(Cc3ccc(C(=O)O)cc3)nn2)cc1
2	Nc1ccc(-c2cccs2)cc1NC(=O)c1cn(CCc2cccc(Cl)c2)nn1
21	Nc1ccc(-c2ccc(F)cc2)cc1NC(=O)c1cn(CCCc2ccccc2)nn1
17	Nc1ccc(-c2cccs2)cc1NC(=O)CCc1cn(C[S+]([O-])c2ccccc2)nn1 (stereo not given)
0	Nc1ccc(-c2cccs2)cc1NC(=O)c1cccc(-c2cn(CC(=O)Nc3ccc(F)cc3)nn2)c1
24	Cc1cccc(CCn2cc(CCC(=O)Nc3cc(-c4cccs4)ccc3N)nn2)c1
6	COc1ccc(CCn2cc(C(=O)Nc3cc(-c4ccsc4)ccc3N)nn2)cc1
0	Nc1ccc(-c2ccccc2)cc1NC(=O)c1cn(CCc2cccc(F)c2)nn1
21	COc1ccc(CCn2cc(CCC(=O)Nc3cc(-c4cccs4)ccc3N)nn2)cc1
6	COc1ccccc1CCn1cc(C(=O)Nc2cc(-c3cccs3)ccc2N)nn1
20	Nc1ccc(-c2ccc(F)cc2)cc1NC(=O)c1cn(CCc2cccc([N+](=O)[O-])c2)nn1
38	Nc1ccc(-c2cccs2)cc1NC(=O)c1ccc(-c2cn(CCc3c[nH]c4ccccc34)nn2)s1
55	Nc1ccc(-c2cccs2)cc1NC(=O)c1cccc(-c2cn(Cc3ccc(C(=O)O)cc3)nn2)c1
19	Nc1ccc(-c2cccs2)cc1NC(=O)c1ccc(-c2cn(CCc3c[nH]c4ccccc34)nn2)cc1
44	Nc1ccc(-c2cccs2)cc1NC(=O)c1ccc(-c2cn(CS(=O)(=O)c3ccccc3)nn2)s1
0	Nc1ccc(-c2ccc(F)cc2)cc1NC(=O)c1cn(CCc2cccc(C(F)(F)F)c2)nn1

inhibition [%]	Structure (SMILES)
20	COc1ccccc1CCn1cc(-c2ccc(C(=O)Nc3cc(-c4cccs4)ccc3N)s2)nn1
48	Nc1ccc(-c2cccs2)cc1NC(=O)c1cccc(-c2cn(CCN3CCOCC3)nn2)c1
33	Nc1ccc(-c2cccs2)cc1NC(=O)c1ccc(-c2cn(CCc3ccccc3[N+](=O)[O-])nn2)cc1
0	Nc1ccc(-c2cccs2)cc1NC(=O)c1cn(Cc2ccc(Oc3ccccc3)cc2)nn1
0	Nc1ccc(-c2cccs2)cc1NC(=O)c1ccc(-c2cn(Cc3ccc(Oc4ccccc4)cc3)nn2)cc1
1	Nc1ccc(-c2ccc(F)cc2)cc1NC(=O)c1cn(CCCCCc2ccccc2)nn1
2	Nc1ccc(-c2ccccc2)cc1NC(=O)c1cn(Cc2cccc3ccccc23)nn1
14	Nc1ccc(-c2cccs2)cc1NC(=O)c1cccc(-c2cn(CCc3ccc(C(=O)O)cc3)nn2)c1
0	Nc1ccc(-c2ccsc2)cc1NC(=O)c1cn(CCc2ccc([N+](=O)[O-])cc2)nn1
0	Nc1ccc(-c2ccc(F)cc2)cc1NC(=O)c1cn(Cc2cccc(C(=O)O)c2)nn1
0	Nc1ccc(-c2ccccc2)cc1NC(=O)c1cn(C[S+]([O-])c2ccccc2)nn1 (stereo not given)
0	Nc1ccc(-c2ccsc2)cc1NC(=O)CCc1cn(Cc2cccc(-c3ccccc3)c2)nn1
54	Nc1ccc(-c2cccs2)cc1NC(=O)c1ccc(-c2cn(CCCCCC(=O)O)nn2)s1
0	Nc1ccc(-c2cccs2)cc1NC(=O)c1ccc(-c2cn(Cc3cc4ccccc4s3)nn2)cc1
32	Nc1ccc(-c2cccs2)cc1NC(=O)c1cn(Cc2ccc(C(=O)O)cc2)nn1
12	Nc1ccc(-c2ccc(F)cc2)cc1NC(=O)c1cn(CCc2ccc([N+](=O)[O-])cc2)nn1
0	Nc1ccc(-c2ccc(F)cc2)cc1NC(=O)CCc1cn(Cc2cccc(-c3ccccc3)c2)nn1
0	Nc1ccc(-c2ccc(F)cc2)cc1NC(=O)c1cn(CCc2ccc(Cl)cc2)nn1
0	Cc1ccc(-n2cc(C(=O)Nc3cc(-c4cccs4)ccc3N)nn2)cc1C
17	Nc1ccc(-c2ccsc2)cc1NC(=O)c1cn(CCc2ccccc2)nn1
6	Nc1ccc(-c2ccccc2)cc1NC(=O)c1cn(CCCc2ccccc2)nn1
0	Cc1ccc(-n2cc(-c3ccc(C(=O)Nc4cc(-c5cccs5)ccc4N)s3)nn2)cc1C
